In brackets after ≈: the same amount, converted by molar mass. *1 amine or outer side, *2 acyl side, *3 side chain or, on linkers, in order; H or OH if unused. Where a SMILES comes first, the peptide text is derived from it. [ ]: non-standard residue; d: D form. The star is where a group is joined. X12 = C[C@H](CO[C@H](CC12CC3CC(CC(C3)C1)C2)[C@@H](C)C(=O)[*:2])N[*:1]; X16 = CCCCCC[C@@H](O[C@@H](C)CN[*:1])[C@@H](C)C(=O)[*:2]; X5 = CCCC[C@@H](OC[C@@H](C)N[*:1])[C@@H](CCCC)C(=O)[*:2]; X2 = CCCCCC[C@@H](OC[C@@H](C)N[*:1])[C@@H](C)C(=O)[*:2]; X21 = C[C@H](CO[C@@H]1CCCCCC[C@H]1C(=O)[*:2])N[*:1]; X14 = CCCCCC[C@@H](OCCN[*:1])[C@@H](C)C(=O)[*:2]; Cyclobutyl(trans-3-NH2) = N[C@H]1C[C@H](*)C1; Gly(cHept) = N[C@H](C(=O)O)C1CCCCCC1; Propyl(3-guanidino) = N=C(N)NCCC*; aThr = C[C@H](O)[C@H](N)C(=O)O; NMeL = CN[C@@H](CC(C)C)C(=O)O; Chg = N[C@H](C(=O)O)C1CCCCC1; NMeNva = CCC[C@H](NC)C(=O)O; Propyl(3-NMe2) = CN(C)CCC*; Dap = NC[C@H](N)C(=O)O; Propyl(3-NH2) = NCCC*; X4 = NCC(F)(F)C*; X10 = NCCCC*
Each compound was assayed on Escherichia coli (E. coli) strain CFT073 ATCC 700928. Conditions: ATCC 700928, 22 h.
Assay type: cell-based
Summary of the method: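 MICs were read after 22 h at 35 °C, with bacteria added to a final OD600 of 0.0005. Compounds were serially diluted 2-fold over ten concentrations from a top of 64, 4, 0.5 or 0.13 μg/mL (protocols 1–4). Medium was cation-adjusted Mueller Hinton II broth plus 0.002% Tween-80, following CLSI M07-A8.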

Row | MIC | SMILES
1 | 3.1 µM (≈ 2.32 µg/mL) | CCCCCC[C@H]1OC(=O)CNC(=O)[C@H]([C@H](C)O)NC(=O)[C@H](CN)NC(=O)[C@H](C2CCCCC2)NC(=O)[C@H](CC(C)C)N(C)C(=O)[C@@H]1CC(F)(F)F [Example 68, (6S,9S,12S,15S,18R,19R)-9-(Aminomethyl)-12-cyclohexyl-19-hexyl-6-((S)-1-hydroxyethyl)-15-isobutyl-16-methyl-18-(2,2,2-trifluoroethyl)-1-oxa-4,7,10,13,16-pentaazacyclononadecane-2,5,8,11,14,17-hexaone]
2 | 15 µM (≈ 11.1 µg/mL) | CCCCCC[C@H]1OC[C@@H](C)NC(=O)[C@H]([C@H](C)OCCCN)NC(=O)[C@H](CN)NC(=O)[C@H](C2CCCCC2)NC(=O)[C@H](CC(C)C)N(C)C(=O)[C@@H]1C [Example 70, (3R,6S,9S,12S,15S,18R,19R)-9-(Aminomethyl)-6-((S)-1-(3-aminopropoxy)ethyl)-12-cyclohexyl-19-hexyl-15-isobutyl-3,16,18-trimethyl-1-oxa-4,7,10,13,16-pentaazacyclononadecane-5,8,11,14,17-pentaone] (cyclo([Chg][Dap][aThr](Propyl(3-NH2))[X2][NMeL]))
3 | 12 µM (≈ 8.17 µg/mL) | CCCCCC[C@H]1O[C@@H](C)CNC(=O)[C@H]([C@H](C)O)NC(=O)[C@H](CN)NC(=O)[C@H](C2CCCCC2)NC(=O)[C@H](CC(C)C)N(C)C(=O)[C@@H]1C [Example 71, (2S,6S,9S,12S,15S,18R,19R)-9-(Aminomethyl)-12-cyclohexyl-19-hexyl-6-((S)-1-hydroxyethyl)-15-isobutyl-2,16,18-trimethyl-1-oxa-4,7,10,13,16-pentaazacyclononadecane-5,8,11,14,17-pentaone] (cyclo([Chg][Dap][aThr][X16][NMeL]))
4 | 12 µM (≈ 8.99 µg/mL) | CCCCCC[C@H]1OC(=O)CNC(=O)[C@H](CNC(=O)C2CNC2)NC(=O)[C@H](CN)NC(=O)[C@H](C2CCCCC2)NC(=O)[C@H](CC(C)C)N(C)C(=O)[C@@H]1C [Example 72, N-(((6S,9S,12S,15S,18R,19R)-9-(Aminomethyl)-12-cyclohexyl-19-hexyl-15-isobutyl-16,18-dimethyl-2,5,8,11,14,17-hexaoxo-1-oxa-4,7,10,13,16-pentaazacyclononadecan-6-yl)methyl)azetidine-3-carboxamide]
5 | 1.6 µM (≈ 1.19 µg/mL) | CC(C)C[C@H]1C(=O)N[C@@H](C2CCCCC2)C(=O)N[C@@H](CN)C(=O)N[C@@H]([C@H](C)O)C(=O)N[C@H](C)CO[C@H](CC23CC4CC(CC(C4)C2)C3)[C@@H](C)C(=O)N1C [Example 74, (3R,6S,9S,12S,15S,18R,19R)-19-(((1r,3R,5S)-Adamantan-1-yl)methyl)-9-(aminomethyl)-12-cyclohexyl-6-((S)-1-hydroxyethyl)-15-isobutyl-3,16,18-trimethyl-1-oxa-4,7,10,13,16-pentaazacyclononadecane-5,8,11,14,17-pentaone] (cyclo([Chg][Dap][aThr][X12][NMeL]))
6 | 3.1 µM (≈ 2.33 µg/mL) | CC(C)C[C@H]1C(=O)N[C@@H](C2CCCCC2)C(=O)N[C@@H](CN)C(=O)N[C@@H](COCCCN)C(=O)NCC(=O)O[C@H](CCCCC(C)(C)C)[C@@H](C)C(=O)N1C [Example 75, (6S,9S,12S,15S,18R,19R)-9-(Aminomethyl)-6-((3-aminopropoxy)methyl)-12-cyclohexyl-19-(5,5-dimethylhexyl)-15-isobutyl-16,18-dimethyl-1-oxa-4,7,10,13,16-pentaazacyclononadecane-2,5,8,11,14,17-hexaone]
7 | 6.3 µM (≈ 4.86 µg/mL) | CCCCCC[C@H]1OC[C@@H](C)NC(=O)[C@H](COc2ccc(CN)cc2)NC(=O)[C@H](CN)NC(=O)[C@H](C2CCCCC2)NC(=O)[C@H](CC(C)C)N(C)C(=O)[C@@H]1C [Example 76, (3R,6S,9S,12S,15S,18R,19R)-9-(Aminomethyl)-6-((4-(aminomethyl)phenoxy)methyl)-12-cyclohexyl-19-hexyl-15-isobutyl-3,16,18-trimethyl-1-oxa-4,7,10,13,16-pentaazacyclononadecane-5,8,11,14,17-pentaone]
8 | 4.4 µM (≈ 3 µg/mL) | CCCC[C@H]1OC[C@@H](C)NC(=O)[C@H]([C@H](C)O)NC(=O)[C@H](CN)NC(=O)[C@H](C2CCCCC2)NC(=O)[C@H](CCC)N(C)C(=O)[C@@H]1CCCC [Example 77, (3R,6S,9S,12S,15S,18R,19R)-9-(Aminomethyl)-18,19-dibutyl-12-cyclohexyl-6-((S)-1-hydroxyethyl)-3,16-dimethyl-15-propyl-1-oxa-4,7,10,13,16-pentaazacyclononadecane-5,8,11,14,17-pentaone] (cyclo([Chg][Dap][aThr][X5][NMeNva]))
9 | 25 µM (≈ 18.8 µg/mL) | CCCCCC[C@H]1OC[C@@H](C)NC(=O)[C@H](COCCCN(C)C)NC(=O)[C@H](CN)NC(=O)[C@H](C2CCCCC2)NC(=O)[C@H](CC(C)C)N(C)C(=O)[C@@H]1C [Example 78, (3R,6S,9S,12S,15S,18R,19R)-9-(Aminomethyl)-12-cyclohexyl-6-((3-(dimethylamino)propoxy)methyl)-19-hexyl-15-isobutyl-3,16,18-trimethyl-1-oxa-4,7,10,13,16-pentaazacyclononadecane-5,8,11,14,17-pentaone] (cyclo([Chg][Dap]S(Propyl(3-NMe2))[X2][NMeL]))
10 | 0.78 µM (≈ 0.561 µg/mL) | CCC[C@H]1C(=O)N[C@@H](C2CCCCCC2)C(=O)N[C@@H](CN)C(=O)N[C@@H]([C@H](C)O)C(=O)NCC(=O)O[C@H](CC2CC3CCC2CC3)[C@@H](C)C(=O)N1C (stereo partly drawn) [Example 79, (6S,9S,12S,15S,18R,19R)-9-(Aminomethyl)-19-(bicyclo[2.2.2]octan-2-ylmethyl)-12-cycloheptyl-6-((S)-1-hydroxyethyl)-16,18-dimethyl-15-propyl-1-oxa-4,7,10,13,16-pentaazacyclononadecane-2,5,8,11,14,17-hexaone]
11 | 12 µM (≈ 9.12 µg/mL) | CCCCCC[C@H]1OC[C@@H](C)NC(=O)[C@H](COCC(F)(F)CN)NC(=O)[C@H](CN)NC(=O)[C@H](C2CCCCC2)NC(=O)[C@H](CC(C)C)N(C)C(=O)[C@@H]1C [Example 81, (3R,6S,9S,12S,15S,18R,19R)-6-((3-Amino-2,2-difluoropropoxy)methyl)-9-(aminomethyl)-12-cyclohexyl-19-hexyl-15-isobutyl-3,16,18-trimethyl-1-oxa-4,7,10,13,16-pentaazacyclononadecane-5,8,11,14,17-pentaone] (cyclo([Chg][Dap]S(X4)[X2][NMeL]))
12 | 4.4 µM (≈ 3.37 µg/mL) | CCCCCC[C@H]1OC[C@@H](C)NC(=O)[C@H](COCCCNC(=N)N)NC(=O)[C@H](CN)NC(=O)[C@H](C2CCCCC2)NC(=O)[C@H](CC(C)C)N(C)C(=O)[C@@H]1C [Example 82, 1-(3-(((3R,6S,9S,12S,15S,18R,19R)-9-(Aminomethyl)-12-cyclohexyl-19-hexyl-15-isobutyl-3,16,18-trimethyl-5,8,11,14,17-pentaoxo-1-oxa-4,7,10,13,16-pentaazacyclononadecan-6-yl)methoxy)propyl)guanidine] (cyclo([Chg][Dap]S(Propyl(3-guanidino))[X2][NMeL]))
13 | 0.39 µM (≈ 0.28 µg/mL) | CCC[C@H]1C(=O)N[C@@H](C2CCCCCC2)C(=O)N[C@@H](CN)C(=O)N[C@@H]([C@H](C)O)C(=O)NCC(=O)O[C@H](C[C@@H]2C[C@@H]3CC[C@@H](C3)C2)[C@@H](C)C(=O)N1C [Example 83, (6S,9S,12S,15S,18R,19R)-9-(Aminomethyl)-19-(((1R,3s,5S)-bicyclo[3.2.1]octan-3-yl)methyl)-12-cycloheptyl-6-((S)-1-hydroxyethyl)-16,18-dimethyl-15-propyl-1-oxa-4,7,10,13,16-pentaazacyclononadecane-2,5,8,11,14,17-hexaone]
14 | 0.78 µM (≈ 0.55 µg/mL) | CCC[C@H]1C(=O)N[C@@H](C2CCCCCC2)C(=O)N[C@@H](CN)C(=O)N[C@@H]([C@H](C)O)C(=O)NCC(=O)O[C@H](CC2CC3(CCC3)C2)[C@@H](C)C(=O)N1C [Example 84, (6S,9S,12S,15S,18R,19R)-9-(Aminomethyl)-12-cycloheptyl-6-((S)-1-hydroxyethyl)-16,18-dimethyl-15-propyl-19-(spiro[3.3]heptan-2-ylmethyl)-1-oxa-4,7,10,13,16-pentaazacyclononadecane-2,5,8,11,14,17-hexaone]
15 | 50 µM (≈ 32.5 µg/mL) | CCC[C@H]1C(=O)N[C@@H](C2CCCCC2)C(=O)N[C@@H](CN)C(=O)N[C@@H]([C@H](C)O)C(=O)N[C@H](C)CO[C@@H]2CCCCCC[C@H]2C(=O)N1C [Example 86, (3R,6S,9S,12S,15S,17aR,23aR)-9-(Aminomethyl)-12-cyclohexyl-6-((S)-1-hydroxyethyl)-3,16-dimethyl-15-propyloctadecahydrocycloocta[r][1]oxa[4,7,10,13,16]pentaazacyclononadecine-5,8,11,14,17(2H)-pentaone] (cyclo([Chg][Dap][aThr][X21][NMeNva]))

Row | SMILES | MIC
16 | CCCCCC[C@H]1OC[C@@H](C)NC(=O)[C@H](COCCCCN)NC(=O)[C@H](CN)NC(=O)[C@H](C2CCCCC2)NC(=O)[C@H](CC(C)C)N(C)C(=O)[C@@H]1C [Example 73, (3R,6S,9S,12S,15S,18R,19R)-6-((4-Aminobutoxy)methyl)-9-(aminomethyl)-12-cyclohexyl-19-hexyl-15-isobutyl-3,16,18-trimethyl-1-oxa-4,7,10,13,16-pentaazacyclononadecane-5,8,11,14,17-pentaone] (cyclo([Chg][Dap]S(X10)[X2][NMeL])) | 6.3 µM (≈ 4.65 µg/mL)
17 | CCCCCC[C@H]1OCCNC(=O)[C@H](CO[C@H]2C[C@H](N)C2)NC(=O)[C@H](CN)NC(=O)[C@H](C2CCCCCC2)NC(=O)[C@H](CCC)N(C)C(=O)[C@@H]1C [Example 80, (6S,9S,12S,15S,18R,19R)-6-(((1r,3S)-3-Aminocyclobutoxy)methyl)-9-(aminomethyl)-12-cycloheptyl-19-hexyl-16,18-dimethyl-15-propyl-1-oxa-4,7,10,13,16-pentaazacyclononadecane-5,8,11,14,17-pentaone] (cyclo([Dap]S(Cyclobutyl(trans-3-NH2))[X14][NMeNva][Gly(cHept)])) | 12 µM (≈ 8.66 µg/mL)

Source: patent publication US11279735B2, “Cyclic peptide antibiotics” (priority 2017, dated 2022)
